Test results published in the Deep4Chem optical property database.
Each block holds one molecule with its values, some of them ahead of it.

Experiment: solvent given as SMILES

- absorption maximum (in ClC(Cl)Cl): 441 nm
Structure (SMILES): CCCCN1c2ccc(/C=C/c3cc(=O)oc4cc(C)ccc34)cc2Sc2cc(/C=C/c3cc(=O)oc4cc(C)ccc34)ccc21

- absorption maximum (in CCO): 301 nm
Structure (SMILES): COc1cc(F)c(C(=O)c2cc(F)c(OC)cc2F)cc1F

- absorption maximum (in CO): 276 nm
Structure (SMILES): N#Cc1c(-n2nnc3cc(Cl)ccc32)n([C@H]2C[C@H](O)[C@@H](CO)O2)c2ncnc(N)c12

Structure (SMILES): Cc1cc(C#N)ccc1N1c2ccccc2C(c2ccccc2)(c2ccccc2)c2ccccc21
- absorption maximum (in Cc1ccccc1): 349 nm

- absorption maximum (in ClCCl): 398 nm
Structure (SMILES): C(=C\c1ccc(N(c2ccccc2)c2ccccc2)cc1)/c1ccc(-c2ccc(/C=C/c3ccc(N(c4ccccc4)c4ccccc4)cc3)cc2)cc1

- absorption maximum (in CCO): 381 nm
- absorption maximum (in ClCCl): 384 nm
Structure (SMILES): O=Cc1cnc(-c2c3ccccc3cc3ccccc23)nc1

- absorption maximum (in C1CCOC1): 422 nm
Structure (SMILES): C1=C(c2ccccc2)C=C(c2ccccc2)/C1=C/c1ccc2ccc3cccc4ccc1c2c34

- absorption maximum (in C1CCCCC1): 294 nm
Structure (SMILES): CCCCCCCC[Si](C)(C)c1cccc2ccccc12

Structure (SMILES): CCN(CC)c1ccc2cc(/C=C(\C#N)c3nc4ccccc4o3)c(=O)oc2c1
- absorption maximum (in C1COCCO1): 497 nm
- absorption maximum (in CC#N): 510 nm
- absorption maximum (in CCO): 516 nm
- absorption maximum (in CCOC(C)=O): 506 nm
- absorption maximum (in CN(C)C=O): 529 nm
- absorption maximum (in CO): 509 nm
- absorption maximum (in CS(C)=O): 519 nm
- absorption maximum (in Cc1ccccc1): 500 nm
- absorption maximum (in ClCCl): 511 nm

- absorption maximum (in CC#N): 370 nm
- absorption maximum (in CCCCCC): 352 nm
Structure (SMILES): C1CCN2CCCn3c2c(c2c3=NCCN=2)C1

- absorption maximum (in ClC(Cl)Cl): 350 nm
Structure (SMILES): N#Cc1c(C#N)c2cc(Br)ccc2c2ccc(Br)cc12

- absorption maximum (in CC#N): 408.95 nm
- absorption maximum (in CCCCCC): 408.95 nm
Structure (SMILES): Cc1ccc2c(c1)C(=O)c1ccncc1-2

- absorption maximum (in CC#N): 355 nm
Structure (SMILES): COC(=O)c1c(NC(C)(C)C)oc(-c2ccc(-c3ccccc3)cc2)c1C(=O)OC

- absorption maximum (in C1COCCO1): 393 nm
Structure (SMILES): COc1ccc(C2=N/C(=C\c3ccc(C#N)cc3)C(=O)O2)cc1OC

- absorption maximum (in CO): 535 nm
Structure (SMILES): CCOC(=O)CCCCCn1c2ccccc2c(=O)c2cc3c(cc21)c(=O)c1cc(I)ccc1n3CCCCCC(=O)OCC

- absorption maximum (in ClC(Cl)Cl): 353 nm
Structure (SMILES): CC(=O)OCCN1C(=O)c2cccc3c(Oc4ccc(C=O)cc4)ccc(c23)C1=O

- absorption maximum (in C1CCOC1): 428 nm
- absorption maximum (in CC#N): 445 nm
- absorption maximum (in CCO): 433 nm
- absorption maximum (in CS(C)=O): 449 nm
Structure (SMILES): CCOC(=O)c1ccccc1-c1c2ccc(=O)cc-2oc2cc(OC(=O)[C@H](CO[Si](C)(C)C(C)(C)C)NC(=O)OC(C)(C)C)ccc12

- absorption maximum (in ClCCl): 562 nm
Structure (SMILES): CC1=C(C)C(c2c(C)c(C)c3n2[B-](F)(F)[N+]2=C(C)C(C)=C(C)C2=C3)=[N+]2C1=Cc1c(C)c(C)c(C)n1[B-]2(F)F

- absorption maximum (in CC#N): 337 nm
Structure (SMILES): Brc1ccc(-c2pc3ccccc3s2)cc1 (stereo not drawn)

- absorption maximum (in ClCCl): 465 nm
Structure (SMILES): F[B-]1(F)N(c2ccccc2)c2cccc3ccc4ccc[n+]1c4c23

- absorption maximum (in CCCCCCCCCCCCCC): 409 nm
Structure (SMILES): COc1ccsc1-c1ccc(-c2ccc(-c3sccc3OC)s2)s1

- absorption maximum (in ClCCl): 391 nm
Structure (SMILES): c1ccc(N2N=C(c3cccc4ccccc34)CC2c2ccc3ccc4cccc5ccc2c3c45)cc1 (stereo not drawn)

- absorption maximum (in CC#N): 333 nm
Structure (SMILES): CN(C)c1ccc(C#Cc2ccc3ccc(=O)oc3c2)cc1

- absorption maximum (in CC#N): 423 nm
Structure (SMILES): C(=C\c1ccc(/C=C/c2cccs2)s1)/c1cccs1

Structure (SMILES): CC[N+]1(CC)CN2C(=N1)C(C(=O)O)=Cc1c(OC)ccc(OC)c12
- absorption maximum (in O): 368 nm

- absorption maximum (in CN(C)C=O): 525 nm
Structure (SMILES): NCCCCCCCCCCCCN1C(=O)c2ccc3c4ccc5c6c(ccc(c7ccc(c2c37)C1=O)c64)C(=O)N(c1ccc(O)cc1)C5=O

Structure (SMILES): COc1ccc(C2=C3C(C)=CC(C)=[N+]3[B-](F)(F)n3c(C)cc(C)c32)cc1
- absorption maximum (in Cc1ccccc1): 504 nm

- absorption maximum (in C1CCCCC1): 315 nm
Structure (SMILES): C[Si](C)(C)c1ccc(C#N)c2ccccc12

Structure (SMILES): CCCCCCN(CCCCCC)c1ccc(C#Cc2ccc(/C=C/c3ccc(-c4ccc(/C=C/c5ccc(C#Cc6ccc(N(CCCCCC)CCCCCC)cc6)cc5)cc4)cc3)cc2)cc1
- absorption maximum (in Cc1ccccc1): 400 nm

- absorption maximum (in ClCCl): 421 nm
Structure (SMILES): C(#Cc1nc(C#Cc2ccccc2)c(C#Cc2ccccc2)c(C#Cc2ccccc2)c1C#Cc1ccccc1)c1ccccc1

- absorption maximum (in CO): 406 nm
Structure (SMILES): Nc1ccc(C#Cc2ccc3ccc4ccc(C#Cc5ccc(NS(=O)(=O)c6ccc([N+](=O)[O-])cc6[N+](=O)[O-])cc5)c5ccc2c3c45)cc1

Structure (SMILES): c1ccc(-n2c(-c3cccc4ccccc34)nc3c4ccccc4c4ccccc4c32)cc1
- absorption maximum (in Cc1ccccc1): 356 nm

- absorption maximum (in ClCCl): 346 nm
Structure (SMILES): c1ccc2c(c1)c1ccccc1c1ncncc21

- absorption maximum (in ClCCl): 416 nm
Structure (SMILES): CC(C)(C)c1cc(C#Cc2ccc3c(C#Cc4cc(C(C)(C)C)cc(C(C)(C)C)c4)cc4c5cc(C#Cc6cc(C(C)(C)C)cc(C(C)(C)C)c6)ccc5c(C#Cc5cc(C(C)(C)C)cc(C(C)(C)C)c5)cc4c3c2)cc(C(C)(C)C)c1

Structure (SMILES): CCC1=C(C)C2=C(C)c3cc(I)cn3[B-](F)(F)[N+]2=C1C
- absorption maximum (in C1CCCCC1): 517.5 nm
- absorption maximum (in CC(C)=O): 502.5 nm
- absorption maximum (in CCO): 506 nm
- absorption maximum (in CCOC(C)=O): 504.5 nm
- absorption maximum (in CO): 503.5 nm
- absorption maximum (in OCC(F)(F)F): 499.5 nm

- absorption maximum (in O): 438 nm
Structure (SMILES): CC[n+]1c(-c2ccccc2)c2cc(NC(=O)NCC[NH3+])ccc2c2ccc(NC(=O)NCC[NH3+])cc21

- absorption maximum (in CO): 485 nm
Structure (SMILES): CCN(CC)c1ccc(C=Cc2nc3nc4ccccc4nc3s2)c(OC)c1

- absorption maximum (in ClC(Cl)Cl): 371 nm
Structure (SMILES): Clc1ccc(-c2nc(-c3ccccc3)c(N(c3ccccc3)c3ccccc3)s2)cc1

Structure (SMILES): C(#Cc1ccc2ccc3cccc4ccc1c2c34)c1ccccc1
- absorption maximum (in Cc1ccccc1): 362 nm

- absorption maximum (in CC#N): 716 nm
- absorption maximum (in CCO): 708 nm
- absorption maximum (in CO): 710 nm
- absorption maximum (in ClC(Cl)Cl): 722 nm
Structure (SMILES): CCNc1cc2c(cc1C)C(c1ccccc1C(=O)O)=C1CCCC(/C=C/C3=[N+](C)c4ccc5ccccc5c4C3(C)C)=C1O2

- absorption maximum (in ClCCl): 704 nm
Structure (SMILES): N#Cc1ccc(/C2=C3N=C(C(c4ccccc4)=C/3c3ccccc3)/C(c3ccc(C#N)cc3)=c3\[nH]/c(c(-c4ccccc4)c3-c3ccccc3)=C(/c3ccc(C#N)cc3)C3=N/C(=C(/c4ccc(C#N)cc4)c4[nH]c2c(-c2ccccc2)c4-c2ccccc2)C(c2ccccc2)=C3c2ccccc2)cc1

- absorption maximum (in ClC(Cl)Cl): 354 nm
Structure (SMILES): c1ccc2c(c1)oc1nc3oc4ccc(-n5c6ccccc6c6cc(-n7c8ccccc8c8ccccc87)ccc65)cc4c3cc12

Structure (SMILES): N#Cc1c(-n2c3ccc(I)cc3c3cc(I)ccc32)c(C#N)c(-n2c3ccc(I)cc3c3cc(I)ccc32)c(-n2c3ccc(I)cc3c3cc(I)ccc32)c1-n1c2ccc(I)cc2c2cc(I)ccc21
- absorption maximum (in Cc1ccccc1): 384 nm

- absorption maximum (in CCCCCCC): 405 nm
Structure (SMILES): c1cc2c3c(cccc3c1)-c1cc3c(ccc4ccccc43)cc1-2

Structure (SMILES): CCC/N=C/c1cc2ccc(N(C)C)cc2cc1OC
- absorption maximum (in C1CCOC1): 369 nm
- absorption maximum (in CC#N): 369 nm
- absorption maximum (in CC(C)O): 450 nm
- absorption maximum (in CCOC(C)=O): 369 nm
- absorption maximum (in CN(C)C=O): 374 nm
- absorption maximum (in CS(C)=O): 376 nm
- absorption maximum (in Cc1ccccc1): 369 nm
- absorption maximum (in ClCCl): 368 nm
- absorption maximum (in O): 438 nm

- absorption maximum (in ClCCl): 404 nm
Structure (SMILES): CCCCn1c2ccccc2c2ccc(C#Cc3ccc4ccc5cccc6ccc3c4c56)cc21

Structure (SMILES): CC1CC=C(c2ccc(-c3ccc(C#N)s3)s2)CC1 (stereo not drawn)
- absorption maximum (in C1CCOC1): 357 nm
- absorption maximum (in CC#N): 355 nm
- absorption maximum (in CCCCCC): 356 nm
- absorption maximum (in CCO): 358 nm
- absorption maximum (in OCCOCCO): 366 nm
- absorption maximum (in c1ccncc1): 363 nm

- absorption maximum (in CCO): 369 nm
Structure (SMILES): CN(C)c1cc2c(cc1F)c(=O)c1cc(F)c(N)cc1n2C

- absorption maximum (in C1CCCCC1): 474 nm
- absorption maximum (in CC#N): 508 nm
- absorption maximum (in CCO): 511 nm
- absorption maximum (in c1ccccc1): 491 nm
Structure (SMILES): CNc1ccc2c(c1)C(=O)c1ccccc1-2

- absorption maximum (in ClC(Cl)Cl): 413 nm
Structure (SMILES): O=[N+]([O-])c1cc(C=C(C#Cc2ccccc2)C#Cc2ccccc2)ccc1C=C(C#Cc1ccccc1)C#Cc1ccccc1

- absorption maximum (in ClCCl): 421 nm
Structure (SMILES): Clc1ccccc1N1c2sc3ccccc3c2Sc2c1sc1ccccc21

- absorption maximum (in CO): 567 nm
Structure (SMILES): CCN(C)c1ccc(C2=C3C(C)=CC(/C=C/c4ccc(OCC(=O)OC)cc4)=[N+]3[B-](F)(F)n3c(C)cc(C)c32)cc1

- absorption maximum (in CC#N): 411 nm
Structure (SMILES): CN(C)c1ccc(-c2nc3nc4ccccc4nc3n2-c2ccc(C(C)(C)C)cc2)cc1

- absorption maximum (in CCCCCC): 551 nm
Structure (SMILES): CC(C)[Si](C#Cc1c2nc3c(nc2c(C#C[Si](C(C)C)(C(C)C)C(C)C)c2nc4ccccc4nc12)C1c2ccccc2C3c2ccccc21)(C(C)C)C(C)C

Structure (SMILES): COCCC1=Cc2nc1ccc1[nH]c(cc1CCOC)c1nc(ccc3[nH]c2cc3CCOC)C(CCOC)=C1
- absorption maximum (in Cc1ccccc1): 638 nm

Structure (SMILES): CCn1c2ccccc2c2cc(/C=C3\C(=O)c4ccccc4S3(=O)=O)ccc21
- absorption maximum (in C1CCOC1): 446 nm
- absorption maximum (in C1COCCO1): 443 nm
- absorption maximum (in CC#N): 442 nm
- absorption maximum (in CC(C)=O): 442 nm
- absorption maximum (in CCOC(C)=O): 441 nm
- absorption maximum (in CN(C)C=O): 449 nm
- absorption maximum (in CO): 446 nm
- absorption maximum (in CS(C)=O): 454 nm
- absorption maximum (in Cc1ccccc1): 453 nm
- absorption maximum (in ClC(Cl)Cl): 454 nm
- absorption maximum (in ClCCl): 448 nm

Structure (SMILES): c1ccc(-c2nc(-c3ccccc3)nc(-c3ccc(-n4c5ccccc5c5c4c4ccccc4n5-c4ccccc4)cc3)n2)cc1
- absorption maximum (in Cc1ccccc1): 398 nm

- absorption maximum (in ClC(Cl)Cl): 671 nm
Structure (SMILES): CCOC(=O)c1ccc(/C=C/C2=[N+]3C(=C(c4ccccc4)c4ccc(/C=C/c5ccc(C(=O)OCC)o5)n4[B-]3(F)F)C=C2)o1

- absorption maximum (in CC#N): 304 nm
- absorption maximum (in CCCCCC): 310 nm
Structure (SMILES): CCN(CC)c1ccc(-n2c(C)ccc2C)cc1

- absorption maximum (in ClC(Cl)Cl): 437 nm
Structure (SMILES): Cc1c2c(c(C)c3ccccc13)C1=C2C=CC2Nc3ccccc3NC12 (stereo not drawn)

Structure (SMILES): CC1(C)c2ccccc2N(c2ccc(-c3nnc(-c4ccc(N5c6ccccc6C(C)(C)c6ccccc65)cc4)o3)cc2)c2ccccc21
- absorption maximum (in Cc1ccccc1): 360 nm

- absorption maximum (in C1CCCCC1): 420 nm
- absorption maximum (in CC#N): 432 nm
- absorption maximum (in CCO): 432 nm
Structure (SMILES): COc1cccc2c1-c1ccccc1C2=O
